Test results reported in patent US20240238296A1, “METHODS OF REGULATING BCL11A EXPRESSION AND TREATMENT OF BCL11A-MEDIATED DISORDERS” (Fulcrum Therapeutics, Inc., priority 2021, published 2024).

Legend:
HbF [1] = test: Percentage HbF by cation-exchange HPLC in erythroid-differentiated primary CD34+ cells; format: cell-based, human; conditions: Example 2; 100 nM, 7 days
Protocol: (§1) Changes in BCL11A expression and HBG1 and HBG2 expression in multiple healthy CD34+ donor cells were measured by RNA sequencing (RNA-Seq). Human Mobilized Peripheral Blood Primary CD34+ cells from 2 healthy donors and 1 sickle cell trait donor were expanded from thaw by seeding 100,000 viable cells/mL in a culture flask containing CD34+ Phase 1 Media comprised of IMDM, 100 ng/ml hSCF, 5 ng/ml IL-3, 3 IU/mL EPO, 250 μg/mL transferrin, 2.5% normal human serum, 1% pen/strep, 10 ng/ml heparin, 10 μg/mL insulin. The cells were supplemented by adding an additional 1X culture volume of CD34+ Phase 1 Media on Day 3 after thaw. At Day 7 post-thaw, cells were seeded at 0.111×10^6 cells/ml in 1.5 mLs of Phase 1 media in 12-well plates and compound was applied. […]
Hemoglobin protein tetramers were analyzed using HPLC analysis following a protocol derived from Gravett et al. Science 2018. […] Hemolysates were cleared by centrifugation and analyzed for identity and levels of hemoglobin variants (HbF and HbA) by cation-exchange HPLC with a weak cation-exchange column (Poly CAT A: 35 mm×4.6 mm, Poly LC, Inc., Columbia, MD). […] Species were monitored with UV absorbance at 410 nm. […] The abundance of HbF, HbS, and HbA was quantified by calculating the area under the curve for each species in the samples. % HbF was calculated as HbF/(HbF+HbS+HbA)*100. […]

HBG2 = test: RNA-Seq of HBG2 expression in erythroid-differentiated primary CD34+ cells; format: cell-based, human
Protocol: as §1, with “applied. On Day 10 post-thaw, cells were differentiated towards the erythroid lineage by complete medium exchange into CD34+ Phase 2 Media comprised of IMDM, 100 ng/ml hSCF, 3 IU/mL EPO, 250 μg/mL transferrin, 2.5% normal human serum, 1% pen/strep, 10 ng/ml heparin, 10 μg/mL insulin and compound treatment was reapplied.” for “applied.”
(§2) RNA was extracted from Day 14 post-thaw primary CD34+ cells that were differentiated and treated for 7 days with DMSO, 100 nM of Compound 1, or 100 nM of Compound 2 using Ambion mirVana RNA extraction kits. […] Sequenced raw reads of fastq files from all samples were mapped to hg38 genome assemblies using ArrayStudio aligner. Raw read counts and FPKM were calculated for all genes and DESeq2 was applied to calculate differentially expressed genes using general linear model. […]
as §2, with “DMSO, 11 nM, 33 nM,” for “DMSO,”, “100 nM, or 300” for “100”, “1” for “1, or 100 nM of Compound 2”

BCL11A = test: RNA-Seq of BCL11A mRNA expression in erythroid-differentiated primary CD34+ cells; format: cell-based, human
Protocol: Human Mobilized Peripheral Blood Primary CD34+ cells from healthy donors were expanded from thaw by seeding 100,000 viable cells/mL in a culture flask containing CD34+ Phase 1 Media comprised of IMDM, 100 ng/ml hSCF, 5 ng/ml IL-3, 3 IU/mL EPO, 250 μg/mL transferrin, 2.5% normal human serum, 1% pen/strep, 10 ng/ml heparin, 10 μg/mL insulin. The cells were supplemented by adding an additional 1X culture volume of CD34+ Phase 1 Media on Day 3 after thaw. At Day 7 post-thaw, cells were seeded at 0.111×10^6 cells/ml in 1.5 mLs of Phase 1 media in 12-well plates and compound was applied. On Day 10 post-thaw, cells were differentiated towards the erythroid lineage by complete medium exchange into CD34+ Phase 2 Media comprised of IMDM, 100 ng/ml hSCF, 3 IU/mL EPO, 250 μg/mL transferrin, 2.5% normal human serum, 1% pen/strep, 10 ng/mL heparin, 10 μg/mL insulin and compound treatment was reapplied. On Day 12 post-thaw the plates were centrifuged, and 1 mL of Phase 2 media exchanged with fresh Phase 2 media and compound. The cells were harvested on Day 14 post-thaw for downstream analyses.
as §2, with “DMSO, 11 nM, 33 nM,” for “DMSO,”, “100 nM, or 300” for “100”, “1” for “1, or 100 nM of Compound 2”
Changes in BCL11A expression and HBG1 and HBG2 expression in multiple healthy CD34+ donor cells were measured by RNA sequencing (RNA-Seq). […]
as §2, with “aligner.” for “aligner. Raw read counts and FPKM were calculated for all genes and DESeq2 was applied to calculate differentially expressed genes using general linear model.”

TFRC = test: RNA-Seq of housekeeping gene TFRC expression in primary CD34+ cells; format: cell-based, human; conditions: Example 2; 100 nM, 7 days
Protocol: as §1, §2

HBG1 = test: RNA-Seq of HBG1 expression in erythroid-differentiated primary CD34+ cells; format: cell-based, human
Protocol: as §1, with “applied. On Day 10 post-thaw, cells were differentiated towards the erythroid lineage by complete medium exchange into CD34+ Phase 2 Media comprised of IMDM, 100 ng/ml hSCF, 3 IU/mL EPO, 250 μg/mL transferrin, 2.5% normal human serum, 1% pen/strep, 10 ng/ml heparin, 10 μg/mL insulin and compound treatment was reapplied.” for “applied.”
as §2
as §2, with “DMSO, 11 nM, 33 nM,” for “DMSO,”, “100 nM, or 300” for “100”, “1” for “1, or 100 nM of Compound 2”

HbF [2] = test: % HbF of total hemoglobin by HPLC from whole blood in Townes SCD mouse model; format: in vivo; conditions: Townes SCD mice; whole blood after 21 days of treatment; FIG. 8C
Text: (§3) The Townes SCD mouse model was used to study the in vivo pharmacologic activity of Compound 1 in a model with the relevant human globin genes (HBG1 and HBBE6V) integrated into the mouse beta globin locus. Hydroxyurea was used as a benchmark for this 21-day study. […] People living with sickle cell present with impaired erythropoiesis leading to elevated reticulocytes, decreased red blood cell count, and total hemoglobin, and additionally display markers of inflammation such as elevated neutrophils and white blood cells. Similarly, the Townes mouse model recapitulates these hematological aspects of SCD.

H3K27me3 = test: Target engagement: H3K27me3 flow cytometry in Ter119+ bone marrow cells of Townes SCD mice; format: in vivo, mouse; conditions: after 28 days of treatment, FIG. 8A
Text: as §3, with “Hydroxyurea was used as a benchmark for this 21-day study.” left out

[3] = Example 2, 100 nM, 7 days, all donors studied (D069, D144, D326), FIG. 2
[4] = Example 5, 4-point concentration response curves, FIG. 5C
[5] = Example 5, 4-point concentration response curves, FIG. 5A
[6] = Example 5, 4-point concentration response curves, FIG. 5B

Row | SMILES | increase in percentage HbF by HPLC (HbF [1]) | HBG2 expression (HBG2; [3]) | HBG2 expression (HBG2; [4]) | BCL11A expression (BCL11A; [3]) | BCL11A expression (BCL11A; [5]) | expression of the housekeeping gene TFRC (TFRC) | HBG1 expression (HBG1; [3]) | HBG1 expression (HBG1; [6]) | % HbF of total hemoglobin by HPLC (HbF [2]) | levels of H3K27me3 in Ter119+ bone marrow cells (H3K27me3)
1 | Cn1nccc1-c1cc2c(n3cnnc13)NCc1c(F)ccc3c1[C@H](CO3)CO2 [Compound 2] | approximately 2 fold | increase | induction | decreased | reduction | did not result in substantial changes in expression | increase | induction |  | 
2 | COc1cc(C)[nH]c(=O)c1CN1CCc2c(Cl)cc([C@@H](OC)C3COC3)c(Cl)c2C1=O [Compound 3] |  |  | induction |  | reduction |  |  | induction |  | 
3 | NC(=O)NO [hydroxyurea] |  |  |  |  |  |  |  |  | no change | not
